The test system of one assay is rat glioma C6 cells. Briefly: Rat glioma C6 cell proliferation, crystal violet staining. The class given is cell-based. To be noted: 48 h; for C6 cell proliferation: relative to control; for rat glioma cell proliferation (absorbance at 595 nm, % of control): 500 μM. The method, then:
The cell line used was rat glioma C6 cells. The cells were cultured as previously described (Cuevas P et al. Neural Res, 2005). The cells were cultured as adherent cells in Dulbecco's modified Eagle's medium, supplemented with 7.5% (v/v) of fetal bovine serum, 10 μg/ml of streptomycin and 10 units/ml of penicillin. The tumor cells were seeded in 24-well plates at a density of 10,000 cells/well, and were incubated at 37° C. in a humidified chamber with 5% CO2. Once adhered, the cells were treated or not (controls) with 2,5-dihydroxybenzoate at 100, 200, 500 or 1000 µM and they were allowed to proliferate for 48 h. After this time the glioma cell proliferation was evaluated by means of staining the fixed cells with crystal violet. The number of cells is proportional to the amount of retained dye, which was spectrophotometrically determined by measuring the absorbance at 595 nm once the dye was extracted from the cells.
The cell line used was the C6 cell line and the experiment was carried out as described in Example 2. Once adhered, the cells were treated or not (controls) with increasing concentrations of 2,5-DHC (10, 25, 50 and 100 μM) and they were allowed to proliferate for 48 h. After this time the glioma cell proliferation was evaluated by means of staining the fixed cells with crystal violet. The number of cells is proportional to the amount of retained dye, which was determined spectrophotometrically by measuring absorbance at 595 nm once the dye was extracted from the cells.
The cell line used was the C6 cell line and the experiment was carried out as described in examples 2 and 3. Once adhered, the cells were treated or not (controls) with (5A-2HBS) (500 μM) or (2A-5HBS) (500 μM) and they were allowed to proliferate for 48 h. After this time the glioma cell proliferation was evaluated by means of staining the fixed cells with crystal violet. The number of cells is proportional to the amount of retained dye, which was determined spectrophotometrically by measuring the absorbance at 595 nm once the dye was extracted from the cells.

Another assay has as its system bFGF-induced fibrosis. Briefly: bFGF-induced fibrosis around subcutaneously implanted gelatin sponges. The assay is classed as in vivo, Sprague-Dawley rats. The note with it: 100 μM in sponge with bFGF 10 μg/ml and heparin; subcutaneous; 7 days. The method, then:
Sterile gelatin sponges ([…]; Curaspon Dental, Clinimed Holding, Zwanenburg, The Netherlands) were subcutaneously implanted in the dorsal region of the neck in Sprague-Dawley rats after the induction of intraperitoneal anesthesia. The animals were split into two groups: group A, the sponges were moistened with 200 III of saline solution which contained 25 μg/ml of heparin and 10 μg/ml of basic FGF (bFGF); group B, the sponges were moistened in the same solution as in group A, but which solution further contained 2,5-dihydroxybenzoate (100 μM). After 7 days, the sponges and the surrounding subcutaneous fat were removed and histologically analyzed.

Assay [1] concerns the target T1, Fibroblast Growth Factor-1 (FGF-1) (Homo sapiens, UniProt P05230).
T1 construct: host or cells: added to Balb/c 3T3 fibroblast cultures
Briefly: Crystal diffraction of FGF-1:compound complexes. To be noted: electron density contoured at 1σ; acetoxyl groups conserved on binding. On the procedure: Based on the crystal diffraction of the FGF-1:2-acetoxy-5-hydroxybenzene sulfonic acid, FGF-1:5-acetoxy-2-hydroxybenzene sulfonic acid and FGF-1:2,5-diacetoxybenzene sulfonic acid complexes, the structures of the complexes were calculated and represented. FIGS. 13, 14 and 15, which show the surface of the dyed protein according to its electrostatic potential (light grey, negative charge; dark grey, positive charge; white, regions with no charge), show the manner in which 2-acetoxy-5-hydroxybenzene sulfonic acid, 5-acetoxy-2-hydroxybenzene sulfonic acid and 2,5-diacetoxybenzene sulfonic acid interact, respectively, with FGF-1.

Assay [2] has as its target T1, Fibroblast Growth Factor-1 (FGF-1). Briefly: Mitogenesis induced by FGF-1 in quiescent Balb/c 3T3 fibroblast cultures. The class given is cell-based. On the procedure: The evaluated compounds were used in the form of potassium salt, except in the first case which used calcium salt. The experiments were carried out as described in Femandez-Tomero C et al. J Bioi Chern, 2003.

For assay [3], the system named is human lung cancer A549 cells. Briefly: Human tumor cell proliferation, XTT viability method. The class given is cell-based. The note with it: 1-200 μM; 96 h. The method, then: (§1) The cell lines used were the human prostate cancer PC-3 cells and human lung cancer A549 cells. 2000 cells were seeded per well in 96-well plates and they were allowed to adhere overnight. Then the cells were treated or not (controls) with potassium 2,5-diacetoxybenzene sulfonate (DABS) (1-200 μM) and they were allowed to proliferate for 96 h. After this time, the PC-3 and A549 cell proliferation was evaluated by determining the final number of cells by means of the viability method of yellow tetrazolium salt (XTT). The data were expressed as a percentage of the control (without treatment).

The subject of assay [4] is human prostate cancer PC-3 cells. Described as above. The assay is classed as cell-based. The note with it: 1-200 μM; 96 h. The method, then: as §1
The test system of assay [5] is subcutaneous gliomas (rat C6 glioma cells). Briefly: Progression of established subcutaneous C6 gliomas in rats. The class given is in vivo. On the procedure: Rat C6 glioma cells were cultured as previously described (Cuevas P et al. Neural Res, 2005). The C6 cells cultured to confluence in 75 cm^2 flasks were removed and implanted under the abdominal skin in anesthetized rats. The existence of a tumor in the implantation area was observed five days after the implantation of the tumor cells. Only the rats in which the existence of a tumor was observed were randomly assigned to be treated with daily intraperitoneal injections of 2,5-dihydroxybenzene sulfonate (DHBS; 100 mg/kg/day), 2,5-diacetoxybenzene sulfonate (DABS; 100 mg/kg/day) or the carrier (0.9% NaCl). After 10 days of treatment, the subcutaneous gliomas were removed and their volume was calculated according to the formula V=4/3π.(L/2).(A/2)^2 (in mm^3) where L is the larger diameter and A is the smaller diameter, both expressed in mm.

The test system is the same in assay [6]. Briefly: Apoptosis in sections of subcutaneous gliomas (hematoxylin and eosin). The class given is in vivo, rats. The note with it: 100 mg/kg/day i.p. for 10 days; vs carrier. The source says: Tumor cells elude the programmed cell death process or apoptosis that normal cells experience. Apoptosis induction in tumor cells is one way to confront the development of a tumor. To evaluate the effect of potassium 2,5-[…] sulfonate (DABS) on tumor cell apoptosis, 6).lm thick sections of the subcutaneous gliomas described in example 4 were made. The sections were stained with hematoxylin and eosin and observed at a magnification of 313 times using immersion oil. In these conditions, cell apoptosis is shown by the existence of apoptotic bodies appearing as strongly chromogenic granules in the cell nucleus which is frequently fragmented.

Assay [7] concerns human prostate cancer PC-3 cells. Briefly: Subcutaneous PC-3 prostate cancer cell implantation model in athymic mice. The class given is in vivo, athymic mice (Nu/Nu). The note with it: 100 mg/kg daily i.p. for 15 days, vs carrier. The method, then:
5×10^6 human prostate cancer PC-3 cells were subcutaneously injected in male athymic mice (Nu/Nu) of 6-8 weeks of age and weighing 20-26 g. Ten days after the implantation of the tumor cells, the mice were randomly split into two groups: one of them received a daily injection of potassium 2,5-diacetoxybenzene sulfonate (DABS) by intraperitoneal route at a dose of 100 mg/kg dissolved in saline (0.9% NaCl) whereas the other group received a daily injection of carrier (saline). The treatments were administered for 15 days. The volumes of the tumors induced by the implantation of PC-3 cells were measured through the skin on alternating days using a Vernier caliper. The volume was calculated using the formula […], where D is the larger diameter in mm, d is the smaller diameter in mm and V is the volume in mm^3. At the end of treatment, the mice were sacrificed and the tumors were weighed.

T1 sequence (P05230 whole entry, species assumed): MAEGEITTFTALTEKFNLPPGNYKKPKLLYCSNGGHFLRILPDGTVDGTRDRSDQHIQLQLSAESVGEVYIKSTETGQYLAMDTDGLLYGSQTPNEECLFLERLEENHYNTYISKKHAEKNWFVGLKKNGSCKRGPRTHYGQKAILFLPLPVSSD

For `O=C(O)C=Cc1cc(O)ccc1O` [2,5-DHC, 3-(2,5-dihydroxyphenyl)-2-propenoic acid], the C6 cell proliferation entry is on record as “reduced the C6 cell proliferation to less than half” with rat glioma C6 cells (50 µM) and “reduced to one tenth” in the assay on rat glioma C6 cells (100 μM).

For the compound `O=C([O-])c1cc(O)ccc1O.[K+]` [2,5-dihydroxybenzoate, potassium 2,5-dihydroxybenzoate], the “bFGF-induced fibrosis (fibroblasts in septa of connective tissue of adipose tissue)” value in the assay with bFGF-induced fibrosis was “reduces bFGF-induced fibrosis”. The “rat glioma C6 cell proliferation (absorbance at 595 nm)” value in the assay with rat glioma C6 cells (100, 200, 500 or 1000 μM) is on record as “inhibited rat glioma C6 cell proliferation in a concentration-dependent manner”. For the same compound, the “statistical significance of the inhibition of C6 cell proliferation” value in the assay with rat glioma C6 cells (at 500 and 1000 μM, vs control) is listed as “statistically significant”.

`CC(=O)Oc1ccc(O)cc1S(=O)(=O)[O-].[K+]` [2A-5HBS, potassium 2-acetoxy-5-hydroxybenzene sulfonate]: the “rat glioma cell proliferation (absorbance at 595 nm, % of control)” value with rat glioma C6 cells is reported as “caused the inhibition of rat glioma cell proliferation”. The “binding site on FGF-1 in the co-crystal” value in assay [1] was “occupy a site that is very close to the one that has been described occupied by 2,5-dihydroxybenzene sulfonic acid”.

In the case of `CC(=O)Oc1ccc(O)c(S(=O)(=O)[O-])c1.[K+]` [5A-2HBS, potassium 5-acetoxy-2-hydroxybenzene sulfonate], the “rat glioma cell proliferation (absorbance at 595 nm, % of control)” value in the assay with rat glioma C6 cells is recorded as “caused the inhibition of rat glioma cell proliferation”. The “mitogenesis induced by FGF-1” value in [2] was “inhibition of mitogenesis induced by FGF-1”. Moreover, in [1], the “binding site on FGF-1 in the co-crystal” value was “occupy a site that is very close to the one that has been described occupied by 2,5-dihydroxybenzene sulfonic acid”.

On to `CC(=O)Oc1ccc(OC(C)=O)c(S(=O)(=O)[O-])c1.[K+]` [DABS, potassium 2,5-diacetoxybenzene sulfonate], for which the “A549 cell proliferation (number of viable cells, % of control)” value in [3] is listed as “significant inhibition”. Moreover, in assay [4], the “PC-3 cell proliferation (number of viable cells, % of control)” value is “significant inhibition”. The “probability of being tumor-free (χ2 test)” value in assay [5] (DABS group vs DHBS group, 100 mg/kg/day each) was “greater probability of being tumor-free”. Further, the “rats tumor-free when treatment ended” value in [5] (i.p. 100 mg/kg/day for 10 days, all rats had established tumors before treatment) is 4 rats. Further, the “tumor cells in apoptosis in glioma sections” value in [6] was “a large number of tumor cells in apoptosis can be observed”. Besides, the “mitogenesis induced by FGF-1” value in [2] is “inhibition of mitogenesis induced by FGF-1”. Besides, in assay [1], the “binding site on FGF-1 in the co-crystal” value was “occupy a site that is very close to the one that has been described occupied by 2,5-dihydroxybenzene sulfonic acid”. The “tumor growth (tumor volume measured through the skin)” value in assay [7] (started 10 days after implantation) was “significantly reduced the human prostate cell tumor growth”. The “weight of the extracted tumor when treatment ended” value in [7] was “significant reduction of the weight of the extracted tumor”.

In the case of `O=S(=O)([O-])c1cc(O)ccc1O.[K+]` [DHBS, potassium 2,5-dihydroxybenzene sulfonate, reference compound], the “average size (volume) of the subcutaneous gliomas” value in assay [5] (i.p. 100 mg/kg/day for 10 days, started on day 5 after implantation, vs carrier) is given as “less than that of the rats treated with carrier”. The “mitogenesis induced by FGF-1” value in assay [2] is reported as “inhibition of the mitogenesis induced by fibroblast growth factor-1”.

As for “calcium 2-acetoxy-5-hydroxybenzene sulfonate”, the “mitogenesis induced by FGF-1” value in assay [2] is on record as “inhibition of mitogenesis induced by FGF-1”.

These data come from patent publication US10278940B2, “Use of 2,5-dihydroxybenzene compounds and derivatives for the treatment of skin cancer” (AmDerma Pharmaceuticals, LLC, priority 2006, dated 2019).
